Laboratory results: ChEMBL document CHEMBL4311962, “Benzofuran-isatin hybrids and their in vitro anti-mycobacterial activities against multi-drug resistant Mycobacterium tuberculosis” (Eur J Med Chem, 2019)
In brackets after ≈: the same amount, converted by molar mass.

Assays:
[1] = test system: Mycobacterium tuberculosis; assay: Antimycobacterial activity against multidrug (ethambutol, INH and RIF)-resistant Mycobacterium tuberculosis clinical isolate 2 assessed as inhibition of bacterial growth incubated for 7 days by rapid direct susceptibility test technique; format: functional; conditions: 168 h
[2] = Selectivity index, ratio of CC50 for CHO cells to MIC for multidrug (INH and RIF)-resistant Mycobacterium tuberculosis clinical isolate 1; format: toxicity; conditions: hamster, read-out: Selectivity Index
[3] = test system: Mycobacterium tuberculosis; assay: Antimycobacterial activity against multidrug (INH and RIF)-resistant Mycobacterium tuberculosis clinical isolate 1 assessed as inhibition of bacterial growth incubated for 7 days by rapid direct susceptibility test technique; format: functional; conditions: 168 h
[4] = test system: Mycobacterium tuberculosis; assay: Potency index, ratio of ciprofloxacin MIC to compound MIC for multidrug (ethambutol, INH and RIF)-resistant Mycobacterium tuberculosis clinical isolate 2 incubated for 7 days by rapid direct susceptibility test technique; format: functional
[5] = test system: Mycobacterium tuberculosis; assay: Potency index, ratio of rifampicin MIC to compound MIC for multidrug (ethambutol, INH and RIF)-resistant Mycobacterium tuberculosis clinical isolate 2 incubated for 7 days by rapid direct susceptibility test technique; format: functional
[6] = test system: Mycobacterium tuberculosis; assay: Potency index, ratio of ciprofloxacin MIC to compound MIC for multidrug (INH and RIF)-resistant Mycobacterium tuberculosis clinical isolate 1 incubated for 7 days by rapid direct susceptibility test technique; format: functional
[7] = test system: Mycobacterium tuberculosis; assay: Potency index, ratio of isoniazid MIC to compound MIC for multidrug (INH and RIF)-resistant Mycobacterium tuberculosis clinical isolate 1 incubated for 7 days by rapid direct susceptibility test technique; format: functional
[8] = test system: Mycobacterium tuberculosis; assay: Potency index, ratio of rifampicin MIC to compound MIC for multidrug (INH and RIF)-resistant Mycobacterium tuberculosis clinical isolate 1 incubated for 7 days by rapid direct susceptibility test technique; format: functional
[9] = test system: Mycobacterium tuberculosis; assay: Potency index, ratio of isoniazid MIC to compound MIC for multidrug (ethambutol, INH and RIF)-resistant Mycobacterium tuberculosis clinical isolate 2 incubated for 7 days by rapid direct susceptibility test technique; format: functional

Compound | MIC [1] [µg/mL] | selectivity ratio [2] | MIC [3] [µg/mL] | Ratio [4] | Ratio [5] | Ratio [6] | Ratio [7] | Ratio [8] | Ratio [9]
CCOC(=O)c1c(-c2ccc(F)cc2)oc2ccc(OCCCCCCN3C(=O)/C(=N/OC)c4ccccc43)cc12 | 0.25 (≈ 0.448 µM) | 258 | 0.5 (≈ 0.895 µM) |  |  |  |  |  | 
CCOC(=O)c1c(-c2ccc(F)cc2)oc2ccc(OCCCCCCN3C(=O)C(=O)c4cc(OC)ccc43)cc12 | 2 (≈ 3.57 µM) | 128 | 2 (≈ 3.57 µM) |  |  |  |  |  | 
CCO/N=C1\C(=O)N(CCCCCCOc2ccc3oc(-c4ccc(F)cc4)c(C(=O)OCC)c3c2)c2ccc(OC)cc21 | 1 (≈ 1.66 µM) | 128 | 2 (≈ 3.32 µM) |  |  |  |  |  | 
CCOC(=O)c1c(-c2ccccc2)oc2ccc(OCCCN3C(=O)C(=O)c4cc(OC)ccc43)cc12 | 16 (≈ 32 µM) | 64 | 8 (≈ 16 µM) |  |  |  |  |  | 
CCOC(=O)c1c(-c2ccc(F)cc2)oc2ccc(OCCCCCCN3C(=O)/C(=N\O)c4cc(OC)ccc43)cc12 | 1 (≈ 1.74 µM) | 128 | 4 (≈ 6.96 µM) |  |  |  |  |  | 
NNC(=O)c1ccncc1 [ISONIAZID] | > 128 | < 2 | > 128 |  |  |  |  |  | 
CCOC(=O)c1c(-c2ccc(F)cc2)oc2ccc(OCCN3C(=O)C(=O)c4cc(OC)ccc43)cc12 | 4 (≈ 7.94 µM) | 64 | 8 (≈ 15.9 µM) |  |  |  |  |  | 
CCOC(=O)c1c(-c2ccc(F)cc2)oc2ccc(OCCN3C(=O)C(=O)c4ccccc43)cc12 | 4 (≈ 8.45 µM) | 32 | 4 (≈ 8.45 µM) |  |  |  |  |  | 
CCOC(=O)c1c(-c2ccc(OC)cc2)oc2ccc(OCCCCCN3C(=O)C(=O)c4ccccc43)cc12 | 1 (≈ 1.9 µM) | 64 | 2 (≈ 3.79 µM) |  |  |  |  |  | 
CCOC(=O)c1c(-c2ccc(F)cc2)oc2ccc(OCCCN3C(=O)C(=O)c4ccccc43)cc12 | 2 (≈ 4.1 µM) | 256 | 1 (≈ 2.05 µM) |  |  |  |  |  | 
CCOC(=O)c1c(-c2ccccc2)oc2ccc(OCCCN3C(=O)/C(=N/O)c4ccccc43)cc12 | 16 (≈ 33 µM) | 64 | 8 (≈ 16.5 µM) |  |  |  |  |  | 
CCOC(=O)c1c(-c2ccccc2)oc2ccc(OCCCCCCN3C(=O)C(=O)c4ccccc43)cc12 | 2 (≈ 3.91 µM) | 128 | 1 (≈ 1.95 µM) |  |  |  |  |  | 
CCOC(=O)c1c(-c2ccc(OC)cc2)oc2ccc(OCCCCCCN3C(=O)/C(=N/NC(N)=S)c4cc(F)ccc43)cc12 | 0.25 (≈ 0.395 µM) | 1024 | 0.125 (≈ 0.198 µM) | 8 - 16 | >=512 | 8 - 16 | >=512 | >=512 | >=512
CCOC(=O)c1c(-c2ccc(OC)cc2)oc2ccc(OCCCN3C(=O)C(=O)c4cc(F)ccc43)cc12 | 2 (≈ 3.86 µM) | 32 | 2 (≈ 3.86 µM) |  |  |  |  |  | 
CCOC(=O)c1c(-c2ccc(F)cc2)oc2ccc(OCCCN3C(=O)/C(=N/O)c4ccccc43)cc12 | 4 (≈ 7.96 µM) | 32 | 8 (≈ 15.9 µM) |  |  |  |  |  | 
CCOC(=O)c1c(-c2ccc(OC)cc2)oc2ccc(OCCCCN3C(=O)C(=O)c4ccccc43)cc12 | 4 (≈ 7.79 µM) | 128 | 2 (≈ 3.89 µM) |  |  |  |  |  | 
CNC(=O)c1c(-c2ccc(O)cc2)oc2ccc(O)c(CN3CCCCC3)c12 | < 0.06 | > 16400 | < 0.06 |  |  |  |  |  | 
CCOC(=O)c1c(-c2ccccc2)oc2ccc(OCCN3C(=O)C(=O)c4cc(F)ccc43)cc12 | 2 (≈ 4.22 µM) | 16 | 4 (≈ 8.45 µM) |  |  |  |  |  | 
CCOC(=O)c1c(-c2ccc(F)cc2)oc2ccc(OCCN3C(=O)C(=O)c4cc(F)ccc43)cc12 | 2 (≈ 4.07 µM) | 32 | 2 (≈ 4.07 µM) |  |  |  |  |  | 
CCOC(=O)c1c(-c2ccccc2)oc2ccc(OCCCN3C(=O)C(=O)c4ccccc43)cc12 | 8 (≈ 17 µM) | 63 | 4 (≈ 8.52 µM) |  |  |  |  |  | 
CCOC(=O)c1c(-c2ccccc2)oc2ccc(OCCCN3C(=O)/C(=N/O)c4cc(OC)ccc43)cc12 | 16 (≈ 31.1 µM) | 32 | 16 (≈ 31.1 µM) |  |  |  |  |  | 
CO[C@H]1/C=C/O[C@@]2(C)Oc3c(C)c(O)c4c(O)c(c(/C=N/N5CCN(C)CC5)c(O)c4c3C2=O)NC(=O)/C(C)=C\C=C\[C@H](C)[C@H](O)[C@@H](C)[C@@H](O)[C@@H](C)[C@H](OC(C)=O)[C@@H]1C [RIFAMPIN] | > 128 | 8 | 64 (≈ 77.8 µM) |  |  |  |  |  | 
